Key:
STK17A = molecular target: T1, STK17A (Homo sapiens, UniProt Q9UEE5); assay: DSF assay; type: binding; conditions: 20 µM compound
T1 construct: purchased in-house DSF panel (SGC-style construct names; the trailing A/B is a construct suffix)
T1 sequence (Q9UEE5 61-321): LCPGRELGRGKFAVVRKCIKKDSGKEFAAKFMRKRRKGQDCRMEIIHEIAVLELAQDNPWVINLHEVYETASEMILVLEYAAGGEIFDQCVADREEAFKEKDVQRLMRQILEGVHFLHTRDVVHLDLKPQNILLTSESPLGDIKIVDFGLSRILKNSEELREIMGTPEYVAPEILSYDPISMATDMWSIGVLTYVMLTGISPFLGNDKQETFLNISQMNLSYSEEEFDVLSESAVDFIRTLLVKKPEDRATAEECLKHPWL

PAK4A = molecular target: T2, PAK4A (Homo sapiens, UniProt O96013); assay: DSF assay; type: binding; conditions: 20 µM compound
T2 construct: purchased in-house DSF panel (SGC-style construct names; the trailing A/B is a construct suffix)
T2 sequence (O96013 291-591): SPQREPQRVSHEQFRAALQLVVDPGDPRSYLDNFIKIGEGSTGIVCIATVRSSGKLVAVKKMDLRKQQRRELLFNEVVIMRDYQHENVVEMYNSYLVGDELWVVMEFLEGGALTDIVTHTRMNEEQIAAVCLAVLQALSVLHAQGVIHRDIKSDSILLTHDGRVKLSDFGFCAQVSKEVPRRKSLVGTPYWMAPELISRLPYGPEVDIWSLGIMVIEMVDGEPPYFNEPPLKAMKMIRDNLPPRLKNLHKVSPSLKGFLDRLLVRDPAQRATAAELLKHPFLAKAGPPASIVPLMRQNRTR

BRAFA = molecular target: T3, BRAFA (Homo sapiens, UniProt P15056); assay: DSF assay; type: binding; conditions: 20 µM compound
T3 construct: purchased in-house DSF panel (SGC-style construct names; the trailing A/B is a construct suffix)
T3 sequence (P15056 448-723): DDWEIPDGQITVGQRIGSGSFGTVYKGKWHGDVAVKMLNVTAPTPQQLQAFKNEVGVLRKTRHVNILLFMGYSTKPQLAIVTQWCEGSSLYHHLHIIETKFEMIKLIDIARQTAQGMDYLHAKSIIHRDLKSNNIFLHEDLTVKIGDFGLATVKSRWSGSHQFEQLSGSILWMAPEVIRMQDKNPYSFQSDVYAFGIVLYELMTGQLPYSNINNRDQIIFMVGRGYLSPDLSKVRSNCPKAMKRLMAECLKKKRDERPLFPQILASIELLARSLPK

DAPK1A = molecular target: T4, DAPK1A (Homo sapiens, UniProt P53355); assay: DSF assay; type: binding; conditions: 20 µM compound
T4 construct: purchased in-house DSF panel (SGC-style construct names; the trailing A/B is a construct suffix)
T4 sequence (P53355 1-285): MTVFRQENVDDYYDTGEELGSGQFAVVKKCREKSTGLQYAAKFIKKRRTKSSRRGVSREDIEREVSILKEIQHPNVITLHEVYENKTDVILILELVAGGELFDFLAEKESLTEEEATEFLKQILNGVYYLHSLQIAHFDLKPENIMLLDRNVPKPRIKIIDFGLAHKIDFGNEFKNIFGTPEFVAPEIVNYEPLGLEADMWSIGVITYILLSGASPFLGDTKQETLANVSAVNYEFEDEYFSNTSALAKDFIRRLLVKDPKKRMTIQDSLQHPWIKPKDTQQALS

MAPK14A = molecular target: T5, MAPK14A (Homo sapiens, UniProt Q16539); assay: DSF assay; type: binding; conditions: 20 µM compound
T5 construct: purchased in-house DSF panel (SGC-style construct names; the trailing A/B is a construct suffix)
T5 sequence (Q16539 whole entry): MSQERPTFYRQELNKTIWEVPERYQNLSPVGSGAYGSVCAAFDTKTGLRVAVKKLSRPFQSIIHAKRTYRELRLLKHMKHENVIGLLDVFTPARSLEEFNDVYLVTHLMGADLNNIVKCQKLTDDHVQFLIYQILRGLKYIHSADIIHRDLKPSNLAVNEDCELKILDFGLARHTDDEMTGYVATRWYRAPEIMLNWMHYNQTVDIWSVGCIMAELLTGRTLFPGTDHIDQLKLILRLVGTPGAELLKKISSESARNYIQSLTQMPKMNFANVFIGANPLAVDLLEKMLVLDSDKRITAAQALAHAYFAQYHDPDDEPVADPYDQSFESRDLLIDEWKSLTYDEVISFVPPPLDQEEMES

DYRK1A = molecular target: T6, DYRK1A (Homo sapiens, UniProt Q13627); assay: DSF assay; type: binding; conditions: 20 µM compound
T6 construct: purchased in-house DSF panel (SGC-style construct names; the trailing A/B is a construct suffix)

TLK1A = molecular target: T7, TLK1A (Homo sapiens, UniProt Q9UKI8); assay: DSF assay; type: binding; conditions: 20 µM compound
T7 construct: purchased in-house DSF panel (SGC-style construct names; the trailing A/B is a construct suffix)
T7 sequence (Q9UKI8 456-734): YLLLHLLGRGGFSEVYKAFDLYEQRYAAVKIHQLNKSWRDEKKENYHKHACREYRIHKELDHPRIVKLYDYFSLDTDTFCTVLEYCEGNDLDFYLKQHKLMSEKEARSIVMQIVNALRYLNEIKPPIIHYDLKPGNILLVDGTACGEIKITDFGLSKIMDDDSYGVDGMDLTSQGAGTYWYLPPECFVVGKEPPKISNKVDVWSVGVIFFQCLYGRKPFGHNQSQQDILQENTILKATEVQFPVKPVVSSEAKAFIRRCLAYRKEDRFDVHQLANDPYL

SRCA = molecular target: T8, SRCA (Homo sapiens, UniProt P12931); assay: DSF assay; type: binding; conditions: 20 µM compound
T8 construct: purchased in-house DSF panel (SGC-style construct names; the trailing A/B is a construct suffix)
T8 sequence (P12931 254-536): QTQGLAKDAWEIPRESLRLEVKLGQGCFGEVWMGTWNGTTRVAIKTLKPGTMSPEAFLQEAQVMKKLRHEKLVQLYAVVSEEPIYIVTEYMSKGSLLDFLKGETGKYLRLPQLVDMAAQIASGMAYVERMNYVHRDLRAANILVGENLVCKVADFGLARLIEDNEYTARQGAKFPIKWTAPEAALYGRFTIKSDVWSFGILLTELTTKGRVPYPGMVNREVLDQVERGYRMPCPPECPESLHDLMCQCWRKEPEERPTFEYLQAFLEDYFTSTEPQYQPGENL

MST3A = molecular target: T9, MST3A (Homo sapiens, UniProt Q9Y6E0); assay: DSF assay; type: binding; conditions: 20 µM compound
T9 construct: purchased in-house DSF panel (SGC-style construct names; the trailing A/B is a construct suffix)
T9 sequence (Q9Y6E0 4-301): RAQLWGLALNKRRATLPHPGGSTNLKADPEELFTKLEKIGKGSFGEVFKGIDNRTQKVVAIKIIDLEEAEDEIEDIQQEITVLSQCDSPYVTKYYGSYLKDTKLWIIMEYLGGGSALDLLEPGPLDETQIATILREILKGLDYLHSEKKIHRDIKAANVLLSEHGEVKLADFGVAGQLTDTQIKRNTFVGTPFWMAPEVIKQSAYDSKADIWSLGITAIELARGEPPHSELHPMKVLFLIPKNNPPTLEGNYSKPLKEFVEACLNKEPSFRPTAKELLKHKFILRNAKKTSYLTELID

OSR1A = molecular target: T10, OSR1A (Homo sapiens, UniProt O95747); assay: DSF assay; type: binding; conditions: 20 µM compound
T10 construct: purchased in-house DSF panel (SGC-style construct names; the trailing A/B is a construct suffix)
T10 sequence (O95747 17-291): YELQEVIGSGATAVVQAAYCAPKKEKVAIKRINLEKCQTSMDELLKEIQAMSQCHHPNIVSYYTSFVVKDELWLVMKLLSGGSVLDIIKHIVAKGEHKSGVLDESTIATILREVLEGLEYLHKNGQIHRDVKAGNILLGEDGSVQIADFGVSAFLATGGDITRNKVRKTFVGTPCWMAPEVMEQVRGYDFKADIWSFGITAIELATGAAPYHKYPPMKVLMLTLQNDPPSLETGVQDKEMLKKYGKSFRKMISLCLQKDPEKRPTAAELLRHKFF

AURKA^HiBiT = molecular target: T11, AURKA^HiBiT (Homo sapiens, UniProt O14965); assay: HiBiT assay, MV4-11 cells expressing AURKA^HiBiT; type: cell-based; conditions: 6 h; for rescue of AURKA degradation by cotreatment with proteasome inhibitor MG132 / rescue of AURKA levels by cotreatment with neddylation inhibitor MLN4924: MV4-11 AURKA^HiBiT cells; for AURKA^HiBiT protein levels: MV4-11 cells
T11 construct: expressed in transfected cells
T11 sequence (O14965 1-403): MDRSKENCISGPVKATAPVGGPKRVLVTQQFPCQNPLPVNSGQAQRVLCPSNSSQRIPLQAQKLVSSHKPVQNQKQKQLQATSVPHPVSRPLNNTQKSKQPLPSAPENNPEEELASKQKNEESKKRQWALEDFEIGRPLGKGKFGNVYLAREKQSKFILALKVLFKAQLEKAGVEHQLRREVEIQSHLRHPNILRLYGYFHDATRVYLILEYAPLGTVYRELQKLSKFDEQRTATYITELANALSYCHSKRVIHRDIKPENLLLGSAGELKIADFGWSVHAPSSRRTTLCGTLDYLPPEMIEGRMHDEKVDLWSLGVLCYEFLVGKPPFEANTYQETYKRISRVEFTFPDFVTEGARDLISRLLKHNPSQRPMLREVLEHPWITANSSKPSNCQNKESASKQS
Method: (§1) The blots were incubated with respective primary antibodies at 1:1000 dilution (Cell Signaling technologies: Aurora A (D3E4Q), ITK (2F12) and GAPDH (D4C6R)) at 4 °C overnight. The blots were washed with TBS-T thrice and incubated with 1:5000 dilution of horseradish peroxidase (HRP)-labelled respective secondary antibodies (Cell Signaling technologies, Anti- […]
(§2) The blots were washed with TBS-T thrice and then incubated with chemiluminescent HRP substrate (Bio-Rad) for 2 minutes. The blots were imaged and the signals were detected using the Amersham ImageQuant 800 (Cytiva).
(§3) Cell culture. Human MV4-11 ([…]) and human Jurkat ([…]) cells were cultured in RPMI- […]
(§4) °C in 5% CO2. Both media were supplemented with 10% FBS and 1% penicillin/streptomycin. […]
Cell line generation. The stable cell line MV4-11 AURORA−HiBiT was generated as previously described.14 Lentiviral infection was used to generate the stable Jurkat HiBiT cell line. […] HiBiT Measurements. HiBiT assay was performed as described previously. 14 Briefly, MV4-11 and Jurkat HiBiT cells were seeded and treated with compounds for the indicated time. Nano-Glo HiBiT Lytic Detection System (Promega) was used for the assay and luminescence was measured on a Tecan Spark Multiplate reader (Tecan). DC50s were calculated using the dose-response (four parameters) equation in Prism (GraphPad).

AURKA = molecular target: T12, AURKA (Homo sapiens, UniProt O14965); assay: Western blot assay; type: cell-based; set-up: endogenous in cells; host or cells: Jurkat; conditions: Jurkat cells, 6 h
T12 sequence (O14965 1-403): T11 sequence (O14965 1-403)
Method: Two mL of Jurkat cells were seeded into 6 well plates (Greiner) at a density of 5·10 5 cells/mL.
The following day, cells were treated with compounds at according concentrations or DMSO for 6 hours and then lysed with 6 M Urea at 4 °C for 20 minutes. The lysates were centrifuged for 15 minutes at 16000 g and the supernatant was collected to perform the Western-Blot.
Protein quantification was performed using nanodrop One. The SDS samples were prepared […]
The samples were separated by a BIS-TRIS polyacrylamide gel polyacrylamide gel, 100 V for 1:45) followed by transfer to PVDF membranes (Millipore) at 350 mA for 140 minutes. The membranes were blocked using 5%wt/vol BSA (in TBS-T, 20 mM Tris-HCl, pH 7.5, 150 mM NaCl and 0.1% (vol/vol) Tween 20) at room temperature for 1 hour.
as §1, §2, §3, §4

| ΔTm at 20 µM (STK17A) | ΔTm at 20 µM (PAK4A) | ΔTm at 20 µM (BRAFA) | ΔTm at 20 µM (DAPK1A) | ΔTm at 20 µM (MAPK14A) | ΔTm at 20 µM (DYRK1A) | ΔTm at 20 µM (TLK1A) | ΔTm at 20 µM (SRCA) | ΔTm at 20 µM (MST3A) | ΔTm at 20 µM (OSR1A) | rescue of AURKA degradation by cotreatment with proteasome inhibitor MG132 (AURKA^HiBiT) | rescue of AURKA levels by cotreatment with neddylation inhibitor MLN4924 (AURKA^HiBiT) | AURKA^HiBiT protein levels (AURKA^HiBiT) | AURKA protein levels (Western blot) (AURKA) | SMILES |
| --- | --- | --- | --- | --- | --- | --- | --- | --- | --- | --- | --- | --- | --- | --- |
| 8.17 °C | 11 °C | 1.63 °C | 2.7 °C | 0.05 °C | 7.48 °C | 3.45 °C | 7.07 °C | 8.31 °C | 3.71 °C | – | – | – | – | CC(C)(C)OC(=O)NCCOCCOCCOCCOCCC(=O)N1CCN(c2cc(Nc3cc(C4CC4)[nH]n3)nc(Nc3ccc(CC#N)cc3)n2)CC1 [4-L] |
| – | – | – | – | – | – | – | – | – | – | – | – | weak reduction of AURKA levels | no effect on AURKA levels | Cc1ncsc1-c1ccc(CNC(=O)[C@@H]2C[C@H](O)CN2C(=O)[C@@H](NC(=O)CCOCCOCCOCCN2CCN(c3cc(Nc4cc(C5CC5)[nH]n4)nc(Nc4ccc(CC#N)cc4)n3)CC2)C(C)(C)C)cc1 [4-a^neg] |
| 5.46 °C | 9.26 °C | 2.09 °C | 1.49 °C | 0.52 °C | 8.01 °C | 4.52 °C | 2.2 °C | 3.47 °C | 3.94 °C | – | – | – | – | CC(C)(C)OC(=O)NCCCOCCOCCOCCCNC(=O)c1cc(Nc2cc(C3CC3)[nH]n2)nc(Nc2ccc(CC#N)cc2)n1 [5-L] |

The next lines start with the compound.

| SMILES | ΔTm at 20 µM (STK17A) | ΔTm at 20 µM (PAK4A) | ΔTm at 20 µM (BRAFA) | ΔTm at 20 µM (DAPK1A) | ΔTm at 20 µM (MAPK14A) | ΔTm at 20 µM (DYRK1A) | ΔTm at 20 µM (TLK1A) | ΔTm at 20 µM (SRCA) | ΔTm at 20 µM (MST3A) | ΔTm at 20 µM (OSR1A) | rescue of AURKA degradation by cotreatment with proteasome inhibitor MG132 (AURKA^HiBiT) | rescue of AURKA levels by cotreatment with neddylation inhibitor MLN4924 (AURKA^HiBiT) | AURKA^HiBiT protein levels (AURKA^HiBiT) | AURKA protein levels (Western blot) (AURKA) |
| --- | --- | --- | --- | --- | --- | --- | --- | --- | --- | --- | --- | --- | --- | --- |
| Cc1ncsc1-c1ccc(CNC(=O)[C@@H]2C[C@@H](O)CN2C(=O)[C@@H](NC(=O)CCOCCOCCOCCN2CCN(c3cc(Nc4cc(C5CC5)[nH]n4)nc(Nc4ccc(CC#N)cc4)n3)CC2)C(C)(C)C)cc1 [4-a] | – | – | – | – | – | – | – | – | – | – | complete rescue | only partial rescue | dose-dependent degradation of AURKA | only a weak reduction in AURKA levels |
| Cc1ncsc1-c1ccc(CNC(=O)[C@@H]2C[C@@H](O)CN2C(=O)[C@@H](NC(=O)CCOCCOCCOCCOCCN2CCN(c3ccc(Nc4ncc(Cl)c(Nc5ccccc5C(N)=O)n4)cc3)CC2)C(C)(C)C)cc1 [6-b] | – | – | – | – | – | – | – | – | – | – | complete rescue | only partial rescue | dose-dependent degradation of AURKA | only a weak reduction in AURKA levels |
| Cc1ncsc1-c1ccc(CNC(=O)[C@@H]2C[C@H](O)CN2C(=O)[C@@H](NC(=O)CCOCCOCCOCCOCCN2CCN(c3ccc(Nc4ncc(Cl)c(Nc5ccccc5C(N)=O)n4)cc3)CC2)C(C)(C)C)cc1 [6-b^neg] | – | – | – | – | – | – | – | – | – | – | – | – | weak reduction of AURKA levels | no effect on AURKA levels |
| CCOC(=O)c1cc(Nc2cc(C3CC3)[nH]n2)nc(Nc2ccc(CC#N)cc2)n1 [compound 5] | 6.97 °C | 7.87 °C | 1.72 °C | 3.22 °C | 0.11 °C | 6.85 °C | 5.4 °C | 3.24 °C | 7.56 °C | 3.5 °C | – | – | – | – |

Reference: paper PMC11851430, “Workflow for E3 Ligase Ligand Validation for PROTAC Development” (ACS Chemical Biology, 2025)
